Like-named read-outs stand apart in the source and are kept apart here.
What was measured:
Assay type in all cases: cell-based
CCR2 = molecular target: T1, CCR2 (Homo sapiens, UniProt P41597); assay: Figure S2a opioid peptide screen on chemokine receptors; parameters: dose or concentration left out as unconfirmed
T1 construct: expressed in transfected cells
T1 sequence (P41597 1-360 isoform P41597-2): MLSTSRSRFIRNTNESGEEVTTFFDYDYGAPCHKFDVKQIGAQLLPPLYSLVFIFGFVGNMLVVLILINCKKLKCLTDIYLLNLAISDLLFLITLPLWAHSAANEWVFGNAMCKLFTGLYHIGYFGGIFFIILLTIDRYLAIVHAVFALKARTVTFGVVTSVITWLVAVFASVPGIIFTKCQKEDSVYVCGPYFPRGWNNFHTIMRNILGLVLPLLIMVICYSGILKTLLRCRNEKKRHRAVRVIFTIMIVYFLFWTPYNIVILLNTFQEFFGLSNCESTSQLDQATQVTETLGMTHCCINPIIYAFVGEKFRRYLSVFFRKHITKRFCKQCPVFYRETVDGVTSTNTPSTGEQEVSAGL

CXCR2 = molecular target: T2, CXCR2 (Homo sapiens, UniProt P25025); assay: as above; parameters: dose or concentration left out as unconfirmed
T2 construct: expressed in transfected cells
T2 sequence (P25025 1-360): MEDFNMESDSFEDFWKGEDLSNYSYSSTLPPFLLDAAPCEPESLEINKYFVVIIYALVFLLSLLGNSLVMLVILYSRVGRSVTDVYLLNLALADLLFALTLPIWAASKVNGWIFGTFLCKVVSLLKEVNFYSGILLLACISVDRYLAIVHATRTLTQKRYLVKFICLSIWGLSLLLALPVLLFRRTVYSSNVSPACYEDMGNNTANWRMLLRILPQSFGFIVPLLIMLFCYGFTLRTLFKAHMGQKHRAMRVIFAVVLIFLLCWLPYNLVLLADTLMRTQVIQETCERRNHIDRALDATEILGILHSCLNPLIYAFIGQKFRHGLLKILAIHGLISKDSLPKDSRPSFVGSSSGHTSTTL

CXCR5 = molecular target: T3, CXCR5 (Homo sapiens, UniProt P32302); assay: as above; parameters: dose or concentration left out as unconfirmed
T3 construct: expressed in transfected cells
T3 sequence (P32302 1-372): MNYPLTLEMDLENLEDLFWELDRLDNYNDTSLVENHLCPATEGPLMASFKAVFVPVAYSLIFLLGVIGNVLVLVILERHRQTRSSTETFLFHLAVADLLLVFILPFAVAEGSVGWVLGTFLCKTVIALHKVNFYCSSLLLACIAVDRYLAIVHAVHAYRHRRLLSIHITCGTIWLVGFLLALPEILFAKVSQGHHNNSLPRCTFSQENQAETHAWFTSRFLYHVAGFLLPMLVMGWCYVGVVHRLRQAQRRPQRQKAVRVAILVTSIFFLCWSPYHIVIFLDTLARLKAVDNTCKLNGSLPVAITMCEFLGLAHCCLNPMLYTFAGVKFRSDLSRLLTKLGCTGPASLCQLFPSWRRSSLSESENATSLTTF

CXCR6 = molecular target: T4, CXCR6 (Homo sapiens, UniProt O00574); assay: as above; parameters: dose or concentration left out as unconfirmed
T4 construct: expressed in transfected cells
T4 sequence (O00574 whole entry): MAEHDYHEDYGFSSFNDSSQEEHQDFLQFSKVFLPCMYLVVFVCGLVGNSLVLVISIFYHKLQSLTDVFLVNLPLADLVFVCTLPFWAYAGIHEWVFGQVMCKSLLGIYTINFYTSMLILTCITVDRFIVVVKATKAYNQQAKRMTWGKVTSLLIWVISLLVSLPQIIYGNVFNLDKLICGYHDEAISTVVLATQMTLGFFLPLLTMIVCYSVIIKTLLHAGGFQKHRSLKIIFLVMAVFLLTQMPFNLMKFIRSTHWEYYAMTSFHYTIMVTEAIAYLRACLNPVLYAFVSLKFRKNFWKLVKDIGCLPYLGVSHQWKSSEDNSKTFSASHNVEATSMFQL

XCR1 = molecular target: T5, XCR1 (Homo sapiens, UniProt P46094); assay: as above; parameters: dose or concentration left out as unconfirmed
T5 construct: expressed in transfected cells
T5 sequence (P46094 1-333): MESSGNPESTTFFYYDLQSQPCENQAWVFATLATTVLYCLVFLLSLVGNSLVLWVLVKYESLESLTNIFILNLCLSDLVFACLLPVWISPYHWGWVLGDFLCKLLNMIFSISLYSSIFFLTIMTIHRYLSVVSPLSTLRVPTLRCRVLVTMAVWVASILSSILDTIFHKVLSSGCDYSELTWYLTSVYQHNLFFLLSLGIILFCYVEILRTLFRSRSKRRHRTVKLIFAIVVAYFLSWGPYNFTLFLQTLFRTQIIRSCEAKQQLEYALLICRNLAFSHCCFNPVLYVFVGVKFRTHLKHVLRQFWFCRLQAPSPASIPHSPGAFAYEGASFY

ACKR = molecular target: T6, ACKR (Homo sapiens, UniProt P25106); assay: Figure 6h, ACKR, DMSO vs Bafilomycin treatment; conditions: n = 3 or 4 as in cell
T6 construct: expressed in transfected cells; host or cells: U87 cells (human glioblastoma)
T6 sequence (P25106 whole entry): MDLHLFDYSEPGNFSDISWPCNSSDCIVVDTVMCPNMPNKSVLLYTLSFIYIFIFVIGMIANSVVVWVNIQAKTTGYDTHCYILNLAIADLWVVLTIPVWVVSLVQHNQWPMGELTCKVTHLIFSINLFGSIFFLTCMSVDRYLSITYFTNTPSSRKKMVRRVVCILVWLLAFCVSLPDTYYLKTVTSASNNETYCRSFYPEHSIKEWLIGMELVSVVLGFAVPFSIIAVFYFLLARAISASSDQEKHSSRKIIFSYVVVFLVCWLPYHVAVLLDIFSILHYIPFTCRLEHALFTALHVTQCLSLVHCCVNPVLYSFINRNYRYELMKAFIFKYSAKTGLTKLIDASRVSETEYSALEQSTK

KOR = KOR (Homo sapiens, UniProt P41145); assay: Figure 6h, KOR, DMSO vs Bafilomycin treatment; parameters: expressed in transfected cells; host or cells: U87 (human glioblastoma); conditions: n = 3 or 4 as in cell
Sequence of KOR (P41145 whole entry): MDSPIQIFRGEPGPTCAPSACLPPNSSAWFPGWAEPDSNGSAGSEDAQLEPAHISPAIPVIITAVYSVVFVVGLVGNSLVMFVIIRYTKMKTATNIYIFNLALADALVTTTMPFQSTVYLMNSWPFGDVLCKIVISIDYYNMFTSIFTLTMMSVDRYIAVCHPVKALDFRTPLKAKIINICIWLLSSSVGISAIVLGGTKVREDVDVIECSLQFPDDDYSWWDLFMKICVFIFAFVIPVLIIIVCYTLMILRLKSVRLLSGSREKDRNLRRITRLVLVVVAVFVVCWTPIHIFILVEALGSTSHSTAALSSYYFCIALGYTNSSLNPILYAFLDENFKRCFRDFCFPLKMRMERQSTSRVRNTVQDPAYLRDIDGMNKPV

[1] = 'DMSO vs Bafilomycin treatment'
[2] = first of two columns under 'DMSO vs Bafilomycin treatment' (presumably DMSO)

CC(C)C[C@H](NC(=O)[C@H](Cc1ccccc1)NC(=O)CNC(=O)CNC(=O)[C@@H](N)Cc1ccc(O)cc1)C(=O)N[C@@H](CCCN=C(N)N)C(=O)N[C@@H](CCCN=C(N)N)C(=O)N[C@@H](CCC(N)=O)C(=O)N[C@@H](Cc1ccccc1)C(=O)N[C@@H](CCCCN)C(=O)N[C@H](C(=O)N[C@H](C(=O)N[C@H](C(=O)O)[C@@H](C)O)C(C)C)C(C)C [Dynorphin B]
activation (CCR2; replicate 1, read-out: CCR2 activity, ctrl+ = 100): 0.688% | activation (CCR2; replicate 2, read-out: CCR2 activity, ctrl+ = 100): -2.18% | activation (CCR2; replicate 3, read-out: CCR2 activity, ctrl+ = 100): 1.67% | activation (CXCR2; replicate 1, read-out: CXCR2 activity, ctrl+ = 100): 0.415% | activation (CXCR2; replicate 2, read-out: CXCR2 activity, ctrl+ = 100): -10% | activation (CXCR2; replicate 3, read-out: CXCR2 activity, ctrl+ = 100): 5.58% | activation (CXCR5; replicate 1, read-out: CXCR5 activity, ctrl+ = 100): -2.46% | activation (CXCR5; replicate 2, read-out: CXCR5 activity, ctrl+ = 100): -6.11% | activation (CXCR5; replicate 3, read-out: CXCR5 activity, ctrl+ = 100): 11.3% | activation (CXCR6; replicate 1, read-out: CXCR6 activity, ctrl+ = 100): -1.05% | activation (CXCR6; replicate 2, read-out: CXCR6 activity, ctrl+ = 100): -1.2% | activation (CXCR6; replicate 3, read-out: CXCR6 activity, ctrl+ = 100): 0.0809% | activation (XCR1; replicate 1, read-out: XCR1 activity, ctrl+ = 100): -1.79% | activation (XCR1; replicate 2, read-out: XCR1 activity, ctrl+ = 100): 0.791% | activation (XCR1; replicate 3, read-out: XCR1 activity, ctrl+ = 100): 9.32% | Mean ± SEM (Figure 6h, ACKR) (ACKR; [1]): 90,67 ± 2,557, n=3 | Mean ± SEM (Figure 6h, ACKR) (ACKR; [2]): 114,2 ± 9,487, n=3 | Mean ± SEM (Figure 6h, KOR) (KOR; [1]): 30,69 ± 2,71, n=3 | Mean ± SEM (Figure 6h, KOR) (KOR; [2]): 28,51 ± 2,354, n=3

— PMC7305236, “The atypical chemokine receptor ACKR3/CXCR7 is a broad-spectrum scavenger for opioid peptides” (Nature Communications, 2020)
